Consider four cell lines from the supplement of paper PMC10307832.

Assay in all cases: relative viability (nuclei count vs DMSO), 5 days (fraction); higher = more cells survive
Compound in the test “Vorinostat + Palbociclib”: O=C(CCCCCCC(=O)Nc1ccccc1)NO [Vorinostat] + CC(=O)c1c(C)c2cnc(Nc3ccc(N4CCNCC4)cn3)nc2n(C2CCCC2)c1=O [Palbociclib] (partner 0.5 µM)
The method in brief:
(§1)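 Each reported value is a median over duplicate plates. It expresses relative viability: treated-well nuclei count divided by vehicle-well nuclei count. Lung cancer cell lines in 1536-well plates were dosed by pin tool a day after seeding, alone with one drug or with a fixed anchor-drug dose plus five library-drug doses (not always all listed) in √10 steps, and nuclei were counted after 5 days.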

Compound in the test “Vorinostat + Luminespib”: O=C(CCCCCCC(=O)Nc1ccccc1)NO [Vorinostat] + CCNC(=O)c1noc(-c2cc(C(C)C)c(O)cc2O)c1-c1ccc(CN2CCOCC2)cc1 [Luminespib] (partner 0.01 µM)
The method in brief: as §1

Compound in the test “Vorinostat + Pictilisib”: O=C(CCCCCCC(=O)Nc1ccccc1)NO [Vorinostat] + CS(=O)(=O)N1CCN(Cc2cc3nc(-c4cccc5[nH]ncc45)nc(N4CCOCC4)c3s2)CC1 [Pictilisib] (partner 1 µM)
The method in brief: as §1

Compound in the test “Vorinostat + Phenformin”: O=C(CCCCCCC(=O)Nc1ccccc1)NO [Vorinostat] + N=C(N)NC(=N)NCCc1ccccc1 [Phenformin] (partner 250 µM)
The method in brief:
as §1

Compound in the test “Vorinostat + Olaparib”: O=C(CCCCCCC(=O)Nc1ccccc1)NO [Vorinostat] + O=C(c1cc(Cc2n[nH]c(=O)c3ccccc23)ccc1F)N1CCN(C(=O)C2CC2)CC1 [Olaparib] (partner 8 µM)
In short, it runs like this:
as §1

Take NCI-H647: the relative viability came out at 0.453 with Vorinostat + Palbociclib (first compound 0.253 µM); 0.158 in the test with Vorinostat + Palbociclib (first compound 0.8 µM); 0.0854 in the test with Vorinostat + Palbociclib (first compound 2.53 µM); 0.0249 with Vorinostat + Palbociclib (first compound 8 µM); 0.0999 with Vorinostat + Luminespib (first compound 0.253 µM); 0.146 in the test with Vorinostat + Luminespib (first compound 0.8 µM). For the same cell line, the relative viability in the test with Vorinostat + Luminespib (first compound 2.53 µM) stood at 0.222; with Vorinostat + Luminespib (first compound 8 µM) it was 0.0619; with Vorinostat + Pictilisib (first compound 0.253 µM), 0.454; with Vorinostat + Pictilisib (first compound 0.8 µM), 0.526; in the test with Vorinostat + Pictilisib (first compound 2.53 µM) it was 0.153; with Vorinostat + Pictilisib (first compound 8 µM), 0.0703. Moreover, the relative viability with Vorinostat + Phenformin (first compound 0.253 µM) stood at 0.594; in the test with Vorinostat + Phenformin (first compound 0.8 µM), 0.208; with Vorinostat + Phenformin (first compound 2.53 µM) it was 0.0803; in the test with Vorinostat + Phenformin (first compound 8 µM) it was 0.0343; with Vorinostat + Olaparib (first compound 0.253 µM) it was 0.694; with Vorinostat + Olaparib (first compound 0.8 µM), 0.201. Besides, the relative viability with Vorinostat + Olaparib (first compound 2.53 µM) amounted to 0.0618; with Vorinostat + Olaparib (first compound 8 µM), 0.0259.
With EKVX, the relative viability stood at 0.401 in the test with Vorinostat + Palbociclib (first compound 0.253 µM); 0.398 in the test with Vorinostat + Palbociclib (first compound 0.8 µM); 0.199 in the test with Vorinostat + Palbociclib (first compound 2.53 µM); 0.125 with Vorinostat + Palbociclib (first compound 8 µM); 0.984 with Vorinostat + Luminespib (first compound 0.253 µM); 0.952 in the test with Vorinostat + Luminespib (first compound 0.8 µM). In addition, the relative viability with Vorinostat + Luminespib (first compound 2.53 µM) was 0.659; with Vorinostat + Luminespib (first compound 8 µM), 0.17; with Vorinostat + Pictilisib (first compound 0.253 µM), 0.475; in the test with Vorinostat + Pictilisib (first compound 0.8 µM), 0.441; with Vorinostat + Pictilisib (first compound 2.53 µM), 0.21; in the test with Vorinostat + Pictilisib (first compound 8 µM), 0.103. The relative viability was found to be 0.228 in the test with Vorinostat + Phenformin (first compound 0.253 µM); 0.238 with Vorinostat + Phenformin (first compound 0.8 µM); 0.225 with Vorinostat + Phenformin (first compound 2.53 µM); 0.134 with Vorinostat + Phenformin (first compound 8 µM); 1.02 with Vorinostat + Olaparib (first compound 0.253 µM); 0.833 with Vorinostat + Olaparib (first compound 0.8 µM). Moreover, the relative viability with Vorinostat + Olaparib (first compound 2.53 µM) turned out to be 0.335; with Vorinostat + Olaparib (first compound 8 µM), 0.15.
For the cell line LCLC-97TM1, the relative viability with Vorinostat + Palbociclib (first compound 0.253 µM) was found to be 0.256; in the test with Vorinostat + Palbociclib (first compound 0.8 µM), 0.201; with Vorinostat + Palbociclib (first compound 2.53 µM), 0.109; with Vorinostat + Palbociclib (first compound 8 µM), 0.0671; with Vorinostat + Luminespib (first compound 0.253 µM), 0.819; in the test with Vorinostat + Luminespib (first compound 0.8 µM), 0.704. The relative viability is 0.299 with Vorinostat + Luminespib (first compound 2.53 µM); 0.122 with Vorinostat + Luminespib (first compound 8 µM); 0.151 with Vorinostat + Pictilisib (first compound 0.8 µM); 0.168 with Vorinostat + Pictilisib (first compound 2.53 µM); 0.0934 with Vorinostat + Pictilisib (first compound 8 µM); 0.489 with Vorinostat + Phenformin (first compound 0.253 µM). The relative viability was found to be 0.421 with Vorinostat + Phenformin (first compound 0.8 µM); 0.253 with Vorinostat + Phenformin (first compound 2.53 µM); 0.144 with Vorinostat + Phenformin (first compound 8 µM); 0.455 with Vorinostat + Olaparib (first compound 0.253 µM); 0.429 with Vorinostat + Olaparib (first compound 0.8 µM); 0.19 with Vorinostat + Olaparib (first compound 2.53 µM). Moreover, the relative viability in the test with Vorinostat + Olaparib (first compound 8 µM) was found to be 0.0482.
On to NCI-H2405, for which the relative viability is 0.604 with Vorinostat + Palbociclib (first compound 0.253 µM); 0.627 in the test with Vorinostat + Palbociclib (first compound 0.8 µM); 0.286 in the test with Vorinostat + Palbociclib (first compound 2.53 µM); 0.13 with Vorinostat + Palbociclib (first compound 8 µM); 0.995 with Vorinostat + Luminespib (first compound 0.253 µM); 1.03 in the test with Vorinostat + Luminespib (first compound 0.8 µM). Moreover, the relative viability was found to be 0.596 with Vorinostat + Luminespib (first compound 2.53 µM); 0.164 in the test with Vorinostat + Luminespib (first compound 8 µM); 0.478 in the test with Vorinostat + Pictilisib (first compound 0.253 µM); 0.542 in the test with Vorinostat + Pictilisib (first compound 0.8 µM); 0.153 in the test with Vorinostat + Pictilisib (first compound 2.53 µM); 0.0468 in the test with Vorinostat + Pictilisib (first compound 8 µM). The relative viability in the test with Vorinostat + Phenformin (first compound 0.253 µM) was found to be 0.495; with Vorinostat + Phenformin (first compound 0.8 µM) it was 0.404; with Vorinostat + Phenformin (first compound 2.53 µM), 0.279; with Vorinostat + Phenformin (first compound 8 µM), 0.0401; with Vorinostat + Olaparib (first compound 0.253 µM), 1.02; with Vorinostat + Olaparib (first compound 0.8 µM) it was 0.888. Moreover, the relative viability was 0.313 with Vorinostat + Olaparib (first compound 2.53 µM) and 0.0962 in the test with Vorinostat + Olaparib (first compound 8 µM).
